Measurements as given in US20240207302A1, “ANTIVIRAL COMPOUNDS, METHODS FOR THE MANUFACTURING OF COMPOUNDS, ANTIVIRAL PHARMACEUTICAL COMPOSITION, USE OF THE COMPOUNDS AND METHOD FOR THE ORAL TREATMENT OF CORONAVIRUS INFECTION AND RELATED DISEASES THEREOF” (priority 2021, published 2024).
Like-named read-outs stand apart in the source and are kept apart here.

Experiments:
[1] = test system: SARS-COV-2 VoC gamma; format: in vivo, mice
[2] = test system: TNF-α and IL-6; assay: TNF-α and IL-6 levels in supernatant of SARS-COV-2-infected human primary monocytes; format: cell-based; conditions: 24 h
Protocol: FIG. 5A, 5B and 5C. The compounds impair SARS-COV-2 RNA synthesis and SARS-COV-2-induced release of inflammatory mediators in human primary monocytes.
Human primary monocytes were obtained after 3 h of plastic adherence of peripheral blood mononuclear cells (PBMCs). PBMCs were isolated from healthy donors by density gradient centrifugation (Ficoll-Paque, GE Healthcare). PBMCs (2.0×10^6 cells) were plated onto 48-well plates (NalgeNunc) in RPMI-1640 without serum for 2 to 4 h. Non-adherent cells were removed, and the remaining monocytes were maintained in DMEM with 5% human serum (HS; Millipore) and penicillin/streptomycin. Monocytes were infected at MOI of 0.1. After 1 h inoculation period, cells were washed with phosphate saline buffer (PBS) to remove unbounded viruses and treated with 1 μM of the indicated compounds. After 24 h after infection, cell monolayers werc lysed total viral RNA was extracted, quantitative RT-PCR was performed, to detect the SARS-COV-2 and the housekeeping gene RNAse P.

[3] = Maximum tolerated dose (OECD 425) and tolerability; format: in vivo; conditions: mice
Protocol: The present assay was designed to investigate the safety and tolerability of MB-905. For the MTD assay (OECD 425), mice (3 animals of each sex/group) were divided into five experimental groups and the up and down procedure was applied to which 175 mg/kg was used as the first dose. […] Mortality, morbidity, body weight, food consumption, general and detailed clinical signs of toxicity were evaluated. At necropsy, vital (brain, heart, liver, spleen, kidneys and adrenal glands) and reproductive organs (ovaries, testicles and epididymis) were carefully removed, weighed and stored for further analysis (if necessary).

[4] = Toxicokinetics in the 28-day study; format: in vivo, mice; conditions: for AUC / Cmax / Tmax / half-life: CD1, mouse, in vivo, po
[5] = 140 mg/kg/day, vs untreated animals
[6] = female, 10 mg/kg, female mice, 10 mg/kg, Day 0
[7] = female, 10 mg/kg, female mice, 10 mg/kg, Day 28
[8] = female, 80 mg/kg, female mice, 80 mg/kg, Day 0
[9] = female, 80 mg/kg, female mice, 80 mg/kg, Day 28
[10] = female, 250 mg/kg, female mice, 250 mg/kg, Day 0
[11] = female, 250 mg/kg, female mice, 250 mg/kg, Day 28
[12] = male, 10 mg/kg, male mice, 10 mg/kg, Day 0
[13] = male, 10 mg/kg, male mice, 10 mg/kg, Day 28
[14] = male, 80 mg/kg, male mice, 80 mg/kg, Day 0
[15] = male, 80 mg/kg, male mice, 80 mg/kg, Day 28
[16] = male, 250 mg/kg, male mice, 250 mg/kg, Day 0
[17] = male, 250 mg/kg, male mice, 250 mg/kg, Day 28

c1coc(CNc2ncnc3[nH]cnc23)c1 [MB-905, kinetin]
TNF-α in BAL [1, 5]: reduced | inflammatory cells counts in BAL [1, 5]: reduced | survival ([1]; 70 mg/kg/day oral with DTG): Higher survival rates | survival ([1]; 140 mg/kg/day oral, combined or not with DTG): Higher survival rates | lung necrosis ([1]; alone or combined with DTG): reduced | SARS-CoV-2-induced enhancement of IL-6 levels in culture supernatant [2]: reduced | SARS-CoV-2-induced enhancement of TNF-α levels in culture supernatant [2]: reduced | NOAEL at 7 days ([3]; both sexes, mouse, in vivo, oral, MTD study): 550 mg/kg | clinical signs ([3]; 1,150 mg/kg oral): piloerection, reduced touch response, prostration, loss of grasping strength, decrease in body temperature and death | death after compound administration, time ([3]; 1,150 mg/kg oral): ≤ 4 h | clinical signs ([3]; 175, 550 and 850 mg/kg oral): did not result in any observable clinical signs indicating toxicity | morbidity and mortality ([3]; 175, 550 and 850 mg/kg oral): did not result in any signs indicative of toxicity | body weight change and food consumption ([3]; single 175, 550 or 850 mg/kg): not observed any significant change | organs weight ([3]; single oral 175, 550 or 850 mg/kg): did not show any changes | AUC [4, 6]: 422 ng·h/mL | Cmax [4, 6]: 288 ng/mL | Tmax [4, 6]: 15 min | AUC [4, 7]: 56.6 ng·h/mL | Cmax [4, 7]: 95 ng/mL | Tmax [4, 7]: 15 min | AUC [4, 8]: 5010 ng·h/mL | Cmax [4, 8]: 747 ng/mL | Tmax [4, 8]: 15 min | half-life [4, 8]: 1550 min | AUC [4, 9]: 1590 ng·h/mL | Cmax [4, 9]: 464 ng/mL | Tmax [4, 9]: 15 min | half-life [4, 9]: 65.4 min | AUC [4, 10]: 4910 ng·h/mL | Cmax [4, 10]: 898 ng/mL | Tmax [4, 10]: 15 min | half-life [4, 10]: 185 min | AUC [4, 11]: 2080 ng·h/mL | Cmax [4, 11]: 716 ng/mL | Tmax [4, 11]: 15 min | half-life [4, 11]: 155 min | AUC [4, 12]: 91 ng·h/mL | Cmax [4, 12]: 99 ng/mL | Tmax [4, 12]: 15 min | AUC [4, 13]: 121 ng·h/mL | Cmax [4, 13]: 144 ng/mL | Tmax [4, 13]: 15 min | AUC [4, 14]: 1020 ng·h/mL | Cmax [4, 14]: 598 ng/mL | Tmax [4, 14]: 15 min | half-life [4, 14]: 72.6 min | AUC [4, 15]: 1170 ng·h/mL | Cmax [4, 15]: 750 ng/mL | Tmax [4, 15]: 15 min | AUC [4, 16]: 4480 ng·h/mL | Cmax [4, 16]: 793 ng/mL | Tmax [4, 16]: 60 min | AUC [4, 17]: 1130 ng·h/mL | Cmax [4, 17]: 588 ng/mL | Tmax [4, 17]: 15 min | half-life [4, 17]: 91.8 min | accumulation (AUCall and Cmax day 0 vs day 28) ([4]; mice, males and females): no there was an accumulation
